Laboratory results from patent publication US20240066090A1, “COMPOSITION FOR PREVENTING, AMELIORATING, OR TREATING METABOLIC SYNDROMES INCLUDING OBESITY, DIABETES, HYPERLIPIDEMIA, AND FATTY LIVER” (NUTRACORE CO., LTD., priority 2019, published 2024).

What was measured:
[1] = system: HFD mice; assay: Periovarian and abdominal wall fat pad thickness, adipocyte size and accumulated fat weight in HFD-supplied mice; assay type: in vivo, ICR mice; conditions: test materials 200 mg/kg oral, Metformin 250 mg/kg, mean±SD for 8 mice
[2] = system: HFD mice; assay: Body weight and total body/abdominal fat density (DEXA) in HFD-supplied mice; assay type: in vivo, ICR mice; conditions: test materials 200 mg/kg, metformin 250 mg/kg
Description: Specifically, after acclimating total 200 6-week-old female ICR mice to a laboratory environment for 7 days, they were adapted to HFD (45% Kcal high fat diet) 1 week before the start of administration of the experimental substance, and then the experimental substance was administered, and in the normal control group, a general NFD (Normal pellet diet) was supplied by the same method.
As the experimental substance, the LB (lemon balm extract) and CS (corn silk extract) alone and 9 kinds of LB:CS complexes (LB:CS=1:1, 1:2, 1:4, 1:6, 1:8, 2:1, 4:1, 6:1 and 8:1 (g/g)) as described in Table 1 above were used. The administration dose of the experimental substance was equally set to 200 mg/kg in total based on the medicinal efficacy investigation research of the present inventors. The experimental substance was dissolved in sterile distilled water and orally administered.
In addition, the total body fat and abdominal fat density were measured using DEXA (live dual-energy x-ray absorptiometry) and the result was shown in FIG. 4.

## CN(C)C(=N)N=C(N)N [Metformin]
[1]
  Abdominal wall fat pads Adipocyte diameters: 64.49 ± 13.74^ab μm
  Abdominal wall fat pads Thickness: 2.99 ± 0.49^fg mm
  Periovarian fat pads Adipocyte diameters: 48.12 ± 6.36^fg μm
  Periovarian fat pads Thickness: 2.83 ± 0.43^ab mm
[2]
  Time after the start of administration at which a significant (p<0.01 or p<0.05) decrease of body weight and fat density compared to the HFD control group began: 21 days
[2]; 84 days
  Body weight and fat density during the 84-day administration period, compared to the HFD control group (groups listed in order of effect): significant (p<0.01) decrease
